Assay results taken from patent US9193689B2, “3-aryl-5-substituted-isoquinolin-1-one compounds and their therapeutic use” (INSTITUTE OF CANCER RESEARCH: ROYAL CANCER HOSPITAL (THE), priority 2012, dated 2015).
Several values for one entry are separate records, joined by “and”; a condition that tells them apart may be missing. Equal values may be shown once.

molecular target: TNKS1 (Homo sapiens, UniProt O95271); assay: TNKS1/PARP Biochemical Assay (TNKS1)

| SMILES | IC50 |
| --- | --- |
| Cc1cccc2c(=O)[nH]c(-c3ccc(CN4CCNCC4C)cc3)cc12 (single isomer, unassigned) [IQ-051-2] | < 50 nM |
| Cc1cccc2c(=O)[nH]c(-c3ccc(C(=O)N(C)C4CCN(C)C4)cc3)cc12 (single isomer, unassigned) [IQ-205-1] | < 50 nM |
| Cc1cccc2c(=O)[nH]c(-c3ccc(C(=O)N(C)C4CCN(C)C4)cc3)cc12 (single isomer, unassigned) [IQ-205-2] | < 20 nM |
| Cc1cc(F)cc2c(=O)[nH]c(-c3ccc(C(=O)N(C)C4CCN(C)C4)cc3)cc12 (single isomer, unassigned) [IQ-207-1] | < 50 nM |
| Cc1cc(F)cc2c(=O)[nH]c(-c3ccc(C(=O)N(C)C4CCN(C)C4)cc3)cc12 (single isomer, unassigned) [IQ-207-2] | < 50 nM |
| CN1CCN(c2ccc(-c3cc4c(Cl)cccc4c(=O)[nH]3)c[n+]2[O-])CC1 [IQ-002-2, 5-Chloro-3-[6-(4-methyl-piperazin-1-yl)-1-oxy-pyridin-3-yl]-2H-isoquinolin-1-one] | < 500 nM |
| Cc1cccc2c(=O)[nH]c(-c3ccc(N4CCN(C5CC5)CC4)nc3)cc12 [IQ-004] | < 20 nM |
| Cc1cccc2c(=O)[nH]c(-c3ccc(N4CCC(N(C)C)CC4)nc3)cc12 [IQ-006] | < 20 nM |
| CN(C)C1CCN(c2ccc(-c3cc4c(Cl)cccc4c(=O)[nH]3)cn2)CC1 [IQ-007] | < 50 nM |
| Cc1cccc2c(=O)[nH]c(-c3ccc(N4CCC(N(C)C)C4)nc3)cc12 (stereo not shown) [IQ-008] | < 20 nM |
| CC(C)(C)OC(=O)N1CCN(c2ccc(-c3cc4c(Cl)cccc4c(=O)[nH]3)cc2)CC1 [IQ-010] | < 500 nM |
| Cc1cccc2c(=O)[nH]c(-c3ccc(N4CCN(CCO)CC4)nc3)cc12 [IQ-011, 3-{6-[4-(2-Hydroxy-ethyl)-piperazin-1-yl]-pyridin-3-yl}-5-methyl-2H-isoquinolin-1-one] | < 20 nM |
| O=c1[nH]c(-c2ccc(N3CCN(CCO)CC3)nc2)cc2c(Cl)cccc12 [IQ-012] | < 50 nM |
| Cc1cccc2c(=O)[nH]c(-c3ccc(N4CCN(C(=O)OC(C)(C)C)CC4)cc3)cc12 [IQ-013] | < 50 nM |
| O=c1[nH]c(-c2ccc(N3CCNCC3)cc2)cc2c(Cl)cccc12 [IQ-014] | < 20 nM |
| CC(=O)N1CCN(c2ccc(-c3cc4c(Cl)cccc4c(=O)[nH]3)cc2)CC1 [IQ-015] | < 50 nM |
| Cc1cccc2c(=O)[nH]c(-c3ccc(N4CCNCC4)cc3)cc12 [IQ-016] | < 500 nM and < 50 nM and < 20 nM and 12 nM |
| Cc1cccc2c(=O)[nH]c(-c3ccc(N4CCN(CCN(C)C)CC4)nc3)cc12 [IQ-018] | < 20 nM |
| Cc1cccc2c(=O)[nH]c(-c3cnc(N4CCN(C(=O)OC(C)(C)C)CC4)c(F)c3)cc12 [IQ-020] | < 500 nM |
| Cc1cccc2c(=O)[nH]c(-c3cnc(N4CCNCC4)nc3)cc12 [IQ-026] | < 50 nM |
| Cc1cccc2c(=O)[nH]c(-c3ccc(N4CCNCC4)nc3)cc12 [IQ-028-1] | < 20 nM |
| CNCc1ccc(-c2cc3c(C)cccc3c(=O)[nH]2)cc1 [IQ-029] | < 20 nM |
| Cc1cccc2c(=O)[nH]c(-c3ccc(CN4CCCC4)c(F)c3)cc12 [IQ-039] | < 500 nM |
| Cc1cccc2c(=O)[nH]c(-c3ccc(CN4CCN(C(=O)OC(C)(C)C)CC4)cc3)cc12 [IQ-040] | < 500 nM |
| Cc1cccc2c(=O)[nH]c(-c3ccc(CCN4CCCC4)cc3)cc12 [IQ-041] | < 500 nM |

| SMILES | IC50 |
| --- | --- |
| Cc1cccc2c(=O)[nH]c(-c3ccc(CCN4CCOCC4)cc3)cc12 [IQ-042] | < 50 nM |
| CC(C)(C)OC(=O)N1CCN(Cc2ccc(-c3cc4c(Cl)cccc4c(=O)[nH]3)cc2)CC1 [IQ-044] | < 500 nM |
| CC(=O)N1CCN(Cc2ccc(-c3cc4c(Cl)cccc4c(=O)[nH]3)cc2)CC1 [IQ-045] | < 50 nM |
| CC(C)(C)OC(=O)N1CCN(Cc2ccc(-c3cc4c(C5CC5)cccc4c(=O)[nH]3)cc2)CC1 [IQ-047] | < 500 nM |
| O=c1[nH]c(-c2ccc(CN3CCNCC3)cc2)cc2c(C3CC3)cccc12 [IQ-049] | < 500 nM |
| Cc1cccc2c(=O)[nH]c(-c3ccc(CN4CCN(C5CC5)CC4)cc3)cc12 [IQ-050] | < 50 nM |
| Cc1cccc2c(=O)[nH]c(-c3ccc(CN4CCNCC4C)cc3)cc12 (stereo not shown) [IQ-051-1] | < 20 nM |
| Cc1cccc2c(=O)[nH]c(-c3ccc(CN4CCN(C)C(C)C4)cc3)cc12 (stereo not shown) [IQ-052] | < 50 nM |
| CC(=O)N1CCN(Cc2ccc(-c3cc4c(C)cccc4c(=O)[nH]3)cc2)CC1 [IQ-055, 3-[4-(4-Acetyl-piperazin-1-ylmethyl)-phenyl]-5-methyl-2H-isoquinolin-1-one] | < 20 nM |
| CN1CCN(Cc2ccc(-c3cc4c(Cl)cccc4c(=O)[nH]3)cc2)C(=O)C1 [IQ-056] | < 50 nM |
| Cc1cccc2c(=O)[nH]c(-c3ccc(CN4CCNCC4)c(F)c3)cc12 [IQ-059] | < 50 nM |
| Cc1cccc2c(=O)[nH]c(-c3ccc(CN4CCCN(C(=O)OC(C)(C)C)CC4)cc3)cc12 [IQ-060] | < 500 nM |
| Cc1cccc2c(=O)[nH]c(-c3ccc(CN4CCCNCC4)cc3)cc12 [IQ-062] | < 20 nM |
| Cc1cccc2c(=O)[nH]c(-c3ccc(CN4CC(C)NC(C)C4)cc3)cc12 (stereo not shown) [IQ-063] | < 500 nM |
| Cc1cccc2c(=O)[nH]c(-c3ccc(CN4CCCN(C)CC4)cc3)cc12 [IQ-065] | < 50 nM |
| Cc1cccc2c(=O)[nH]c(-c3ccc(C(C)N4CCNCC4)cc3)cc12 (stereo not shown) [IQ-067] | < 50 nM |
| Cc1cccc2c(=O)[nH]c(-c3ccc(CN4CCN(C(=O)OC(C)(C)C)CC4)nc3)cc12 [IQ-071] | < 500 nM |
| Cc1cccc2c(=O)[nH]c(-c3ccc(CN4CCNCC4)nc3)cc12 [IQ-072] | < 500 nM |
| Cc1cccc2c(=O)[nH]c(-c3ccc(CN4CCNCC4=O)cc3)cc12 [IQ-073] | < 50 nM |
| Cc1cccc2c(=O)[nH]c(-c3ccc(C(C)(C)N4CCNCC4)cc3)cc12 [IQ-075, 5-Methyl-3-[(4-(1-methyl-1-piperazin-1-yl]-ethyl)-phenyl]-2H-isoquinolin-1-one] | < 500 nM |
| Cc1cc(F)cc2c(=O)[nH]c(-c3ccc(CN4CCN(C(=O)OC(C)(C)C)CC4)cc3)cc12 [IQ-076] | < 500 nM |
| CC(C)(C)OC(=O)N1CCN(Cc2ccc(-c3cc4c(F)ccc(F)c4c(=O)[nH]3)cc2)CC1 [IQ-077] | < 500 nM |
| Cc1cc(F)cc2c(=O)[nH]c(-c3ccc(CN4CCNCC4)cc3)cc12 [IQ-078, 7-Fluoro-5-methyl-3-(4-piperazin-1-ylmethyl-phenyl)-2H-isoquinolin-1-one] | < 50 nM |
| O=c1[nH]c(-c2ccc(CN3CCNCC3)cc2)cc2c(F)ccc(F)c12 [IQ-079] | < 500 nM |
| O=c1[nH]c(-c2ccc(CN3CCNCC3)cc2)cc2c(Cl)cccc12 [IQ-083] | < 50 nM |

| SMILES | IC50 |
| --- | --- |
| Cc1cccc2c(=O)[nH]c(-c3ccc(CN4CCNC(C)C4)cc3)cc12 (stereo not shown) [IQ-084-3] | < 50 nM |
| Cc1cccc2c(=O)[nH]c(-c3ccc(CN4C[C@@H]5C[C@H]4CN5C(=O)OC(C)(C)C)cc3)cc12 [IQ-085] | < 50 nM |
| Cc1cccc2c(=O)[nH]c(-c3ccc(CN4CCN5CCCC5C4)cc3)cc12 (stereo not shown) [IQ-087] | < 50 nM |
| Cc1cccc2c(=O)[nH]c(-c3ccc(CN4CCC5(CCN(C)C5)C4)cc3)cc12 (stereo not shown) [IQ-088] | < 20 nM |
| Cc1cccc2c(=O)[nH]c(-c3ccc(CN4C[C@@H]5CN(C(=O)OC(C)(C)C)C[C@@H]5C4)cc3)cc12 [IQ-089] | < 500 nM |
| Cc1cccc2c(=O)[nH]c(-c3ccc(CN4C[C@H]5CNC[C@H]5C4)cc3)cc12 [IQ-090] | < 50 nM |
| CN1CCC(CNC(=O)c2ccc(-c3cc4c(Cl)cccc4c(=O)[nH]3)cc2)CC1 [IQ-091, 4-(5-Chloro-1-oxo-1,2-dihydro-isoquinolin-3-yl)-N-(1-methyl-piperidin-4-ylmethyl)-benzamide] | < 500 nM |
| Cc1cccc2c(=O)[nH]c(-c3ccc(C(=O)N(C)CC4CCN(C(=O)OC(C)(C)C)CC4)cc3)cc12 [IQ-092, 4-({Methyl-[4-(5-methyl-1-oxo-1,2-dihydro-isoquinolin-3-yl)-benzoyl]-amino}-methyl)-piperidine-1-carboxylic acid tert-butyl ester] | < 500 nM |
| Cc1cccc2c(=O)[nH]c(-c3ccc(C(=O)N(C)CC4CCN(C)CC4)cc3)cc12 [IQ-095, N-Methyl-4-(5-methyl-1-oxo-1,2-dihydro-isoquinolin-3-yl)-N-(1-methyl-piperidin-4-ylmethyl)-benzamide] | < 50 nM |
| Cc1cccc2c(=O)[nH]c(-c3ccc(C(=O)N(C)C4CCNCC4)cc3)cc12 [IQ-096, N-Methyl-4-(5-methyl-1-oxo-1,2-dihydro-isoquinolin-3-yl)-N-piperidin-4-yl-benzamide] | < 50 nM |
| Cc1cccc2c(=O)[nH]c(-c3ccc(C(=O)N(C)CC4CCOCC4)cc3)cc12 [IQ-097, N-Methyl-4-(5-methyl-1-oxo-1,2-dihydro-isoquinolin-3-yl)-N-(tetrahydro-pyran-4-ylmethyl)-benzamide] | < 20 nM |
| Cc1cccc2c(=O)[nH]c(-c3ccc(C(=O)N(C4CC4)C4CCN(C)CC4)cc3)cc12 [IQ-098] | < 50 nM |
| Cc1cccc2c(=O)[nH]c(-c3ccc(C(=O)N(C)C4CCN(C)CC4)nc3)cc12 [IQ-099] | < 20 nM |
| CN1CCN(C(=O)c2ccc(-c3cc4c(Cl)cccc4c(=O)[nH]3)cc2)CC1 [IQ-101] | < 50 nM |
| Cc1cccc2c(=O)[nH]c(-c3ccc(C(=O)N4CCN(C)CC4)cc3)cc12 [IQ-104] | < 20 nM |
| Cc1cccc2c(=O)[nH]c(-c3ccc(C(=O)N4CCN(C5CC5)CC4)cc3)cc12 [IQ-105] | < 50 nM |
| Cc1cccc2c(=O)[nH]c(-c3ccc(C(=O)N4CCOCC4)cc3)cc12 [IQ-107] | < 20 nM |
| Cc1cccc2c(=O)[nH]c(-c3ccc(S(=O)(=O)N(C)C)cc3)cc12 [IQ-108] | < 50 nM |
| Cc1cccc2c(=O)[nH]c(-c3ccc(S(=O)(=O)N(C)C4CCN(C)CC4)cc3)cc12 [IQ-109] | < 20 nM |
| CN1CCC(N(C)S(=O)(=O)c2ccc(-c3cc4c(Cl)cccc4c(=O)[nH]3)cc2)CC1 [IQ-110] | < 500 nM |
| Cc1cccc2c(=O)[nH]c(-c3ccc(S(=O)(=O)N(C)CC4CCN(C)CC4)cc3)cc12 [IQ-111] | < 50 nM |
| CN1CCC(CN(C)S(=O)(=O)c2ccc(-c3cc4c(Cl)cccc4c(=O)[nH]3)cc2)CC1 [IQ-112] | < 50 nM |
| Cc1cccc2c(=O)[nH]c(-c3ccc(S(=O)(=O)N(C)CC4CCN(C(=O)OC(C)(C)C)CC4)cc3)cc12 [IQ-113] | < 500 nM |
